Measurements as given in the NIST ThermoML archive (doi:10.1016/j.jct.2013.11.038).
Several values for one entry are separate records, joined by “and”; a condition that tells them apart may be missing. Equal entries are not always repeated.

Assays:
[1] = Crystal; for vapor or sublimation pressure: Calculated from knudsen effusion weight loss; for Normal melting temperature: DTA
[2] = Molar enthalpy of transition or fusion; settings: Crystal; DSC
[3] = molar heat capacity at constant pressure; settings: 101.33 kPa, Crystal, Large sample (1 g) DSC

O=C1c2ccccc2-c2cccc3cccc1c23 [7H-benz[de]anthracen-7-one]
Settings	molar heat capacity at constant pressure [J/K/mol]	vapor or sublimation pressure
[1], 360.04 K	–	5.7e-06 kPa [middle of 4 runs]
[1], 369.32 K	–	1.67e-05 kPa [middle of 4 runs]
[1], 380.12 K	–	5.13e-05 kPa [middle of 6 runs]
[1], 390.32 K	–	0.0001425 kPa [middle of 6 runs]
[1], 400.17 K	–	0.0003806 kPa [middle of 7 runs]
[1], 410.37 K	–	0.0009607 kPa [middle of 6 runs]
[3], 300.47 K	257.2	–
[3], 305.43 K	262.2	–
[3], 310.4 K	265.7	–
[3], 315.36 K	270.5	–
[3], 320.32 K	275	–

Settings	Molar enthalpy of transition or fusion [kcal/mol]	Normal melting temperature [°C]
[1]	–	173.63
[2]	6.3	–

O=C(O)c1ccccc1 [benzoic acid]
Settings	molar heat capacity at constant pressure [J/K/mol]	vapor or sublimation pressure
[1], 269.3 K	–	2.1e-06 kPa and 2.2e-06 kPa
[1], 275.04 K	–	5.1e-06 kPa and 5e-06 kPa and 4.9e-06 kPa
[1], 281.33 K	–	1.24e-05 kPa [middle of 4 runs]
[1], 287.28 K	–	2.71e-05 kPa [middle of 7 runs]
[1], 293.19 K	–	5.78e-05 kPa [middle of 6 runs]
[1], 299.18 K	–	0.0001196 kPa [middle of 7 runs]
[1], 305.18 K	–	0.0002454 kPa [middle of 7 runs]
[1], 311.17 K	–	0.0004925 kPa [middle of 7 runs]
[1], 317.13 K	–	0.0009533 kPa [middle of 6 runs]
[3], 308.15 K	152.1	–
[3], 318.15 K	157.3	–
[3], 328.15 K	161.6	–
[3], 338.15 K	166.9	–
[3], 348.15 K	170.8	–
[3], 358.15 K	175.6	–
[3], 368.15 K	180	–
[3], 378.15 K	186.9	–

Settings	Molar enthalpy of transition or fusion [kcal/mol]	Normal melting temperature [°C]
[1]	–	122.22
[2]	4.28	–

O=C(Oc1ccccc1)Oc1ccccc1 [diphenyl carbonate]
[1]
Settings	vapor or sublimation pressure
302.18 K	2.22e-05 kPa [middle of 5 runs]
308.17 K	5.05e-05 kPa [middle of 5 runs]
314.32 K	0.0001144 kPa [middle of 7 runs]
320.25 K	0.0002424 kPa [middle of 7 runs]
326.23 K	0.0005075 kPa [middle of 7 runs]
332.24 K	0.001043 kPa [middle of 6 runs]

CCCCCCCCCCCCCCCCCC [octadecane]
Settings	molar heat capacity at constant pressure, 283.85 K [J/K/mol]	molar heat capacity at constant pressure, 285.5 K [J/K/mol]	molar heat capacity at constant pressure, 287.15 K [J/K/mol]	molar heat capacity at constant pressure, 288.81 K [J/K/mol]	molar heat capacity at constant pressure, 290.46 K [J/K/mol]	vapor or sublimation pressure, 286.34 K	vapor or sublimation pressure, 289.28 K	vapor or sublimation pressure, 292.27 K	vapor or sublimation pressure, 295.17 K	vapor or sublimation pressure, 297.99 K
[1]	–	–	–	–	–	2e-06 kPa [middle of 4 runs]	3.1e-06 kPa [middle of 4 runs]	5.9e-06 kPa [middle of 4 runs]	1.02e-05 kPa and 1.07e-05 kPa and 1.01e-05 kPa	1.9e-05 kPa [middle of 5 runs]
[3]	448.6	455.2	460.7	467.3	472.4	–	–	–	–	–

Settings	Molar enthalpy of transition or fusion [kcal/mol]	Normal melting temperature [°C]
[1]	–	28.31
[2]	14.7	–
